From PubChem BioAssay AID179 (DTP/NCI, 2004) come the findings set out here.

A word on the EC50: it is the midpoint of the concentration-response curve. As usually defined, the IC50 is the point on the concentration scale where inhibition reaches its midpoint. Low readings indicate greater potency in that assay, high ones weaker potency in that assay.

The source made the active and inactive calls.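 The calls were made as follows: active = compounds giving half or more protection of infected cells from virus-caused growth loss, again on retest; inactive = the rest.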 Where only a bound is given, the exact number is not on record here.

The assay relates to CEM cells HIV-1 protection, formazan growth assay. The experiment in a line: NCI AIDS Antiviral Assay. Particulars: for IC50: measured here: growth of uninfected CEM cells. Summed up: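 Protection of CEM cells against HIV-1 was scored from cell growth (soluble formazan) across five concentrations, with parallel uninfected cells. Lack of protection may reflect toxicity.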

Regarding `COc1nc2ncc([C@@H](OC(C)=O)[C@@H](COC(C)=O)OC(C)=O)nc2c(=O)[nH]1`, the EC50 is above 200 µM and the IC50 was above 200 µM.
`N#CC1(C#N)NC(c2cccnc2)C(C#N)(C#N)NC1c1cccnc1` (stereo unspecified): the EC50 is above 200 µM and the IC50 was above 200 µM.
As to `Cc1ccc(S(=O)(=O)N2CCC(C(=O)O)=Cc3c2[nH]c(=O)n(-c2ccccc2)c3=O)cc1`, the EC50 is above 288 µM and the IC50 is above 288 µM.
For `COC(=O)c1cc(C)ccc1/C=C1\Cc2cccc(C)c2C1=O`, the EC50 was above 200 µM.
With `Cn1c(=O)c(C(c2ccc([N+](=O)[O-])cc2)c2c(O)c3ccccc3n(C)c2=O)cc2ccccc21` (stereo unspecified), the EC50 was above 4.27 µM and the IC50 is above 4.27 µM.
Take `COc1ccc(-c2cc(C(=O)Nc3ccc(C)c(C)c3)nc(NC#N)n2)cc1`: the EC50 was above 339 µM and the IC50 is above 339 µM.
`CC(C)CCC[C@@H](C)C1CCC2[C@@H]3CC=C4C[C@@H](C(=O)NCC[N+](C)(C)CCCS(=O)(=O)[O-])CC[C@]4(C)C3CC[C@@]21C` (stereo partly specified): the outcome was inactive.
Same read-out and setting: the value for `COc1cc2ccc(CC(=O)O)cc2cc1OC` was “inactive”.
As for `Cc1cc(O)c(/C=N/C(=S)Nc2ccccc2)c(=O)o1`, the EC50 is above 200 µM and the IC50 is above 200 µM.
As to `O=C1OC(O)C(Oc2c(Cl)cccc2Cl)=C1Cl` (stereo unspecified), the EC50 is above 40.7 µM and the IC50 worked out at 19.1 µM.
The like results for `N#CC1(C#N)C(=O)c2ccncc2C1=O` were, in that order, above 200 µM and above 200 µM.
The like results for `CC(C)SC(NC(=O)C1C(C)(C)CCC1(C)C)C(=O)O` (stereo unspecified) were, in that order, above 200 µM and above 200 µM.
The like results for `O=Nc1c(O)[nH]c(=O)[nH]c1=O` were, in that order, above 200 µM and above 200 µM.
On to `Cn1c(=O)c2c(nc3n(CCCCl)c(=O)ccn23)n(C)c1=O`, for which the EC50 is above 200 µM and the IC50 was above 100 µM.
Consider `Nc1ccc(C2=NC(C(=O)O)C=C2)cc1` (stereo unspecified), for which the EC50 is above 200 µM and the concentration for half-maximal inhibition (IC50) is above 200 µM.
Turning to `Cc1nc2cc(N)c(Cl)cc2[nH]1`, the EC50 is above 200 µM and the IC50 is above 200 µM.
With `COC(O)C(=O)c1c2c(cc3c1CCC3)CCC2` (stereo unspecified), the EC50 was above 200 µM and the IC50 was 174 µM.
The matching figures for `S=C1CC(c2ccccc2)Sc2cc(Cl)ccc2N1` (stereo unspecified): above 200 µM and 1.26 µM.
The matching figures for `CC(=O)Nc1ccc2c(C)c3c(nc2n1)[nH]c1ccccc13`: above 200 µM and 25.7 µM.
The like results for `CC(=O)N(C(C)=O)n1c(Cc2ccc(Cl)cc2)n[nH]c1=O` were, in that order, above 200 µM and above 200 µM.
For the compound `COC(=O)c1ccccc1C1CN=NC12Cc1c(ccc(C)c1C)C2=O` (stereo unspecified), the EC50 is above 151 µM and the IC50 was above 151 µM.
For the compound `CCC(C)c1c(NS(=O)(=O)c2ccc(C)cc2)o[nH]c1=O` (stereo unspecified), the EC50 is above 200 µM and the IC50 was above 200 µM.
On to `COc1ccc(CCN2CCc3c(C)c(C#N)c4nc5ccccc5n4c32)cc1OC`, for which the EC50 was above 200 µM and the IC50 was 53.7 µM.
The like results for `CC1C2=C(C(=O)N1Cc1ccccc1)C(C1OC(COC(=O)c3ccccc3)C(OC(=O)c3ccccc3)C1OC(=O)c1ccccc1)C(=O)N(C)C2=O` (stereo unspecified) were, in that order, above 7.24 µM and above 7.24 µM.
The like results for `O=[N+]([O-])c1ccc(CSC2=C(c3ccc(Cl)cc3)S/C(=C3\SC(SCc4ccc([N+](=O)[O-])cc4)=C(c4ccc(Cl)cc4)S3)S2)cc1` were, in that order, above 200 µM and above 200 µM.
For `Cc1c(NC(=S)Nc2ccc(Cl)cc2)c(=O)n(-c2ccccc2)n1C`, the EC50 was above 200 µM and the IC50 was above 200 µM.
On to `O=CN/C=C/c1ccccc1O`, for which the EC50 is above 200 µM and the IC50 was above 200 µM.
Take `O=c1[nH]nc(-c2ccc([N+](=O)[O-])cc2)[nH]1`: the EC50 was above 200 µM and the IC50 was above 200 µM.
As for `O=C1NC(=O)C(Cc2ccccc2)(Cc2ccccc2)S1`, the EC50 was above 17.4 µM and the IC50 is above 17.4 µM.
`COC(=O)c1cc(C(=CCCC(C)[C@H]2CCC3C4CC[C@@H]5CC(F)(F)CC[C@]5(C)C4CC[C@@]32C)c2cc(Cl)c(OC)c(C(=O)OC)c2)cc(Cl)c1OC` (stereo partly specified): the EC50 is above 100 µM and the IC50 is above 100 µM.
`COc1ccc(C(=O)C2CCC(C(=O)O)C2)cc1` (stereo unspecified): the outcome was inactive.
Turning to `O=C(CN1CCNCCN(CC(=O)N2CCCCC2)CCNCC1)N1CCCCC1`, the EC50 was above 200 µM and the IC50 came out at 10.5 µM.
The matching figures for `O=C1CC2C(C1Nc1ccccc1)C1C(=Nc3ccccc3)C(Nc3ccccc3)=CC1N2c1ccccc1` (stereo unspecified): above 10.2 µM and above 10.2 µM.
The matching figures for `NNC(=O)CCCCCCCC(=O)O`: above 200 µM and above 200 µM.
On to `N[C@@H](Cc1ccccc1)C(=O)N1CCC[C@@H]1P(=O)(Oc1ccccc1)Oc1ccccc1`, for which the outcome was inactive.
`COc1ccc(/C=C(\C#N)c2ccccc2)cc1OC`: the EC50 is above 70.8 µM and the IC50 is above 70.8 µM.
With `Nc1nc(SC2CCCCC2)nc2c1ncn2C1OC(CO)C(O)C1O` (stereo unspecified), the EC50 was above 200 µM and the IC50 came out at 138 µM.
For the compound `O=C(NNC1=NCCCN1)Nc1ccccc1`, the EC50 was above 200 µM and the IC50 was above 200 µM.
In the case of `CCC[CH2][Sn]1([CH2]CCC)[O]C(=O)c2ccc(N)cc2[O]1`, the result was inactive.
Take `COc1ccc(CSC2=C(C#N)C(=O)NC3(CCCCC3)S2)cc1`: the EC50 was above 200 µM and the IC50 was determined as 110 µM.
The matching figures for `C=C1CC2C(=O)N(c3ccccc3)C(=O)C2CC1n1[nH]c(=O)n(Cc2ccccc2)c1=O` (stereo unspecified): above 219 µM and above 219 µM.
As to `O=C(OCn1ncc2ccc([N+](=O)[O-])cc21)c1ccc(Cl)c(Cl)c1`, the EC50 was above 200 µM and the IC50 was found to be 129 µM.
`CO/C(N)=C(\C#N)N=Cc1ccco1`: the EC50 was above 200 µM and the half-inhibitory concentration (IC50) was determined as 191 µM.
`O=C1CS(=O)(=O)C(c2cccc(F)c2)N1N1C(=O)CS(=O)(=O)C1c1cccc(F)c1` (stereo unspecified): the EC50 is above 200 µM and the IC50 is above 200 µM.
As to `CC(=O)c1c(-c2ccccc2)c(-c2ccc(OCCN(C)C)cc2)n2ccccc12`, the EC50 was above 200 µM and the IC50 was 7.59 µM.
The like results for `Cn1c(=O)c2c3ccccc3n(C)c2n(C)c1=O` were, in that order, above 200 µM and above 200 µM.
Regarding `CCOC(=O)c1cn(C)c(=S)n2c1nc1ccccc12`, the EC50 is above 200 µM and the IC50 is above 200 µM.
With `COc1cc(CC2C(O)C3CCN2CC3)cc(OC)c1OC` (stereo unspecified), the outcome was inactive.
Still for that read-out and setting: the same measure for `CCCC(O)[C@@H](O)c1ccc2c(c1O)C(=O)c1c(OC)cccc1C2=O` (stereo partly specified): “inactive”.
Consider `N#C/C(=C\c1ccc(O)c(O)c1)C(=O)N[C@@H]1CCC[C@@H](NC(=O)/C(C#N)=C/c2ccc(O)c(O)c2)C1`, for which the EC50 was above 200 µM and the IC50 worked out at 12.3 µM.
As for `S=C(N1CCN(c2cccc(Cl)c2)CC1)N1CCN(c2cccc(Cl)c2)CC1`, the EC50 is above 200 µM and the IC50 stood at 72.4 µM.
The like results for `Cc1cc(=O)[nH]c(Sc2ccc([N+](=O)[O-])cc2[N+](=O)[O-])n1` were, in that order, above 200 µM and 6.31 µM.
